Source: patent US20150291597A1, “NOVEL ORALLY BIOAVAILABLE BREATHING CONTROL MODULATING COMPOUNDS, AND METHODS OF USING SAME” (Galleon Pharmaceuticals, Inc., priority 2012, published 2015)
Counter-ions that a name gives are not always drawn.

Assays:
anesthetized rats = test: Anesthetized rat spirometry screening assay (respiratory rate, tidal volume, minute volume; IV bolus); format: in vivo; settings: 0.3 mg/kg IV bolus
From the text: Anesthetized rats provide a quick method of screening compounds for respiratory and cardiovascular activity. In contrast to the conscious rat model, this model offers an experimental set up with less variation in the baseline cardiovascular and respiratory measures. Compounds screened in this assay may be examined in a conscious rat model.
Rats were initially anesthetized with 3% isoflurane (inhaled) and femoral artery and vein cannulas were surgically inserted. Once cannulated, the rats were transitioned to urethane anesthesia (1.5 g/kg; i.v.) and a tracheal cut-down was performed. After placing the tracheal cannula, it was connected to a pneumotach to record respiratory airflow from which respiratory rate (RR), tidal volume (VT), and their product minute volume were derived. After the surgical preparation was complete, animals were allowed to stabilize for 30 minutes while respiratory rate, tidal volume, minute volume, blood pressure and heart rate were recorded continuously. Arterial blood gases (ABG) were obtained from arterial blood collected from the femoral artery. ABG measurements were taken before and 6 minutes after vehicle and each dose of compound administered. Compounds being screened were administered via bolus injections through the venous cannula followed by a saline flush (total time of administration is approximately 30 seconds), and the animal was monitored for at least 6 minutes for changes in cardiovascular efforts. Compounds were prepared in formulations identified to ensure optimal solubility. As such, vehicle controls were matched for the formulation of each compound tested. Dosing of the compound being screened was 0.1 and 0.3 mg/kg. The next dose was not administered until all cardiovascular and respiratory measures had returned to baseline levels. The positive control compounds used were N-[4,6-di-(n-propylamino)-[1,3,5]triazin-2-yl]-O,N-dimethyl-hydroxylamine or N-[2,6-di-(n-propylamino)-[1,3]pyrimidin-4-yl]-O,N-dimethyl-hydroxylamine, both administered at the end of each screening experiment (0.3 mg/kg dose) to validate the experiment and also to serve as a measure with which the compound being screened could be compared.
Data were analyzed by collecting cardiovascular and respiratory data in 30 second averages (BINs). Data were plotted 2 minutes before challenge and then 6 minutes after challenge.
FIGS. 2A-2F summarize the effects of individual compounds on peak minute ventilation (increase in VE), overall increase in 2 minute area under the curve (AUC) which is a cumulative measure of effect, along with compound stability (half-life) in rat and human microsomes.

[1] = Solubility of cyanuric chloride in various solvents; format: physicochemical; settings: 10 g in 50 mL, sonicated 1 h
Procedure: The solubility of cyanuric chloride was examined as a way to limit its reactivity and the formation of undesired by-products. Cyanuric chloride (10 g) was mixed with 50 mL of indicated solvent (Table 22) and sonicated for 1 h with occasional swirling. If solid material remained as a suspension, it was filtered off and weighed.

Structure (SMILES): C#CCNc1nc(N(C)OC)c2cc[nH]c2n1.Cl
- melting point: 182 to 184 °C

Structure (SMILES): C#CCN(OC)c1nc(NCCC)nc(NCCC)n1.Cl
- melting point: 110 to 113 °C

Structure (SMILES): C#CCON(C)c1nc(NCCC)nc(NCCC)n1.Cl
- melting point: 105 to 107 °C

Structure (SMILES): C#CCNc1nc(NCCC)nc(N(C)OCC#C)n1.Cl
- melting point: 84 to 86 °C

Structure (SMILES): C#CCNc1nc(NCCC)nc(N(C)OC)n1
- melting point: 79 to 81 °C

Structure (SMILES): C#CCNc1nc(NCCC)nc(N(C)OC)n1.O=C(O)/C=C\C(=O)O
- melting point: 123 to 125 °C

Structure (SMILES): C#CCNc1nc(NCCC)nc(N(C)OC)n1.O=C(O)CC(=O)O
- melting point: 113 to 115 °C

Structure (SMILES): C#CCNc1nc(NCCC)nc(N(C)OC)n1.O=C(O)/C=C/C(=O)O
- melting point: 153 to 155 °C

Structure (SMILES): C#CCNc1nc(NC2CCC2)nc(N(C)OC)n1.Cl
- melting point: 105 to 107 °C

Structure (SMILES): C#CCNc1nc(NC)nc(NCCC)n1.Cl [Compound 7a, N-Methyl-N′-n-propyl-N″-prop-2-ynyl-[1,3,5]triazine-2,4,6-triamine hydrochloride]
- duration of the increase in minute ventilation (anesthetized rats): approximately 2 minutes
- increase in minute ventilation above baseline values (anesthetized rats): up to 85%
- increase in respiratory rate (anesthetized rats): up to 46%
- increase in tidal volume (anesthetized rats): up to 27%

Structure (SMILES): C#CCNc1nc(NCCC)nc(N(Cc2ccc(F)cc2)OC)n1 [Compound 9a, N-(4-Fluorobenzyl)-O-methyl-N-[4-(n-propylamino)-6-(prop-2-ynylamino)-[[1,3,5]triazin-2-yl]-hydroxylamine hydrochloride]
- duration of the increase in minute ventilation (anesthetized rats): approximately 2 minutes
- increase in minute ventilation above baseline values (anesthetized rats): up to 110%
- increase in respiratory rate (anesthetized rats): up to 24%
- increase in tidal volume (anesthetized rats): up to 72%

Structure (SMILES): C#CCNc1nc(N)nc(N(C)OC)n1 [Compound 132, N-(4-Amino-6-prop-2-ynylamino-[1,3,5]triazin-2-yl)-O,N-dimethyl-hydroxylamine]
- melting point: 172 to 174 °C

Structure (SMILES): Clc1nc(Cl)nc(Cl)n1 [cyanuric chloride]
- Solubility of cyanuric chloride ([1]; Acetone, 0 °C): partial crystallization
- Solubility of cyanuric chloride ([1]; Acetone, r.t.): soluble
- Solubility of cyanuric chloride ([1]; DMAc, 0 °C): soluble
- Solubility of cyanuric chloride ([1]; DMAc, r.t.): soluble
- Solubility of cyanuric chloride ([1]; DMF, 0 °C): decomposition
- Solubility of cyanuric chloride ([1]; DMF, r.t.): decomposition
- Solubility of cyanuric chloride ([1]; DMSO, 0 °C): decomposition
- Solubility of cyanuric chloride ([1]; DMSO, r.t.): decomposition
- Solubility of cyanuric chloride ([1]; Dioxane, 0 °C): soluble
- Solubility of cyanuric chloride ([1]; Dioxane, r.t.): soluble
- Solubility of cyanuric chloride ([1]; IPA, 0 °C): insoluble
- Solubility of cyanuric chloride ([1]; MeCN, 0 °C): insoluble
- Solubility of cyanuric chloride ([1]; MeCN, r.t.): 150 µg/mL
- Solubility of cyanuric chloride ([1]; THF, 0 °C): soluble
- Solubility of cyanuric chloride ([1]; THF, r.t.): soluble
- Solubility of cyanuric chloride ([1]; Toluene, 0 °C): soluble
- Solubility of cyanuric chloride ([1]; Toluene, r.t.): soluble
